Test results published in patent US8148355B2, “Phophylactic and therapeutic use of hydroxysteroids” (Hunter-Fleming Limited, priority 2001, dated 2012).
Several values for one entry are separate records, joined by “and”; a condition that tells them apart may be missing. Identical values can stand only once.

Experiments:
[1] = system: Organotypic hippocampal slice cultures (CA1 cell layer); test: Hypoxic neuronal damage in organotypic hippocampal slice cultures (PI fluorescence in CA1); assay type: cell-based, Wistar rat; conditions: for effect on hypoxic damage in CA1 (in words): pre-
Protocol: Protocol For Studying Hypoxic Neuronal Damage
Organotypic hippocampal slice cultures were prepared using the basic method of Pringle et al (1996, 1997) modified as follows:
Wistar rat pups (8-11 days old) were decapitated and the hippocampus rapidly dissected into ice-cold Gey's balanced salt solution supplemented with 4.5 mg/ml glucose. Slices were separated and plated onto Millicell CM culture inserts (4 per well) and maintained at 37° C./5% CO2 for 14 days. Maintenance medium consisted of 25% heat-inactivated horse serum, 25% Hank's balanced salt solution (HBSS) and 50% minimum essential medium with added Earle's salts (MEM) supplemented with 1 mM glutamine and 4.5 mg/ml glucose. Medium was changed every 3-4 days.
Experimental hypoxia was performed as described previously (Pringle et al., 1996; 1997). Briefly, cultures were transferred to serum free medium (SFM-75% MEM, 25% HBSS supplemented with 1 mM glutamine and 4.5 mg/ml glucose) containing 5 μg/ml of the fluorescent exclusion dye propidium iodide (PI). Cultures were allowed to equilibrate in SFM for 60 minutes prior to imaging. PI fluorescence was detected using a Leica inverted microscope fitted with a rhodamine filter set. Any cultures in which PI fluorescence was detected at this stage were excluded from further study. Hypoxia was induced by transferring cultures to SFM (+PI) which had been saturated with 95% N2/5% CO2. Culture plates (without lids) were then sealed into an airtight chamber in which the atmosphere was saturated with 95% N2/5% CO2 by continuously blowing through gas at 10 liters/minute for ten minutes before being sealed and placed in the incubator for 170 minutes (total time of hypoxia was therefore 180 minutes). At the end of the hypoxic period cultures were returned to normoxic SFM containing PI and placed back in the incubator for 24 hours.
Neuronal damage was assessed as described previously (Pringle et al., 1996; 1997) using either NIH Image 1.60 running on an Apple IIsi computer or OpenLab 2.1 (Improvision) running on a Macintosh G4/400. Images were captured using a monochrome camera and saved onto optical disk for offline analysis. Light transmission images were captured prior to the addition of drugs, and PI fluorescence images recorded at the end of the 24-hour post-hypoxia recovery period. The area of the CA1 cell layer was determined from the transmission image. The area of PI fluorescence in CA1 was measured using the density slice function within NIH Image or OpenLab, and neuronal damage expressed as the percentage of the CA1 in which PI fluorescence was detected above background.
Steroid compounds were prepared by making an initial 1 mg/ml solution in ethanol and further diluting down in SFM. Compounds were added to the cultures for 45 minutes prior to hypoxia, during the hypoxic episode and during the post-hypoxic recovery period. Control experiments consisted of cultures treated with vehicle alone.

[2] = system: Langendorf perfused male rat hearts; test: Cardioprotective effect in Langendorf perfused rat hearts (regional ischaemia/reperfusion, infarct size); parameters: species or system Wistar rats; conditions: 100 nM in perfusate, 30 min regional ischaemia, 120 min reperfusion
Protocol: The study was designed to test the potential anti-ischaemic and cardioprotective effect of 7β-OH EPIA in Langendorf perfused male rat hearts. The end point for evaluation of protection in this model is infarct size (protection against lethal injury, cell death). The infarct size model used is based on a standardised ischaemic insult followed by reperfusion. In the current study, treatment was added ex vivo (to the perfusion solution of the isolated heart) for 30 minutes prior to infarction and continued through 30 minutes regional ischaemia (infarction) and 120 minutes of reperfusion. Based on results from pilot studies, a concentration of 100 nM was used and compared to vehicle treated hearts. The drug was dissolved in DMSO (vehicle) and the final concentration of DMSO in the perfusion solution was 1:10^−6.
Animals were housed in the animal department of the University of Tromsø and treated according to the guidelines formulated by the European Convention for the protection of vertebrate animals used for experimental or other purposes. Supply of Wistar rats were from Harland (The Netherlands), and the rats stayed in the animal department for one week before experiments were started. Animal weight was restricted to 240-380 g, and only male hearts were used. This corresponds to age 60-120 days. […]
The perfusion pressure was 100 mm H2O. […] Heart rate was calculated from pressure recordings. […]

[3] = system: hippocampal CA1 pyramidal cells; test: Global cerebral ischaemia in rats, 4 vessel occlusion (intact CA1 neurons, Nissl staining); assay type: in vivo, male Wistar rats
Protocol: Cerebral ischaemia was induced by four-vessel-occlusion (4VO) in male Wistar rats (250-280 g). Both vertebral arteries were occluded by electrocauterization in pentobarbital anaesthesia (60 mg/kg i.p.). The animals were allowed to recover for 24 hours with free access to water but not food. The next day the carotid arteries were exposed under 2% halothane in 30% oxygen/70% nitrous oxide anaesthesia and were occluded for 10 minutes using microvascular clamps. Subsequently, both clamps were removed and both arteries were inspected for immediate reperfusion. During the operation and the following 3 hours normothermia of the animals (37.5±0.5° C.) was maintained by using a thermostatically controlled heating blanket connected to a rectal thermometer. For control, in sham-operated animals both vertebral arteries were cauterised in pentobarbital anaesthesia and both common carotid arteries were exposed but not clamped under 2% halothane in 30% oxygen/70% nitrous oxide anaesthesia the following day. The wound was treated with lidocaine gel and then sutured. The animals were kept under a heating lamp at 30° C. environmental temperature until they regained consciousness.
Seven groups of animals were investigated: • 1. (n=8) steroid compound, 7β-OH EPIA (0.1 mg/kg, i.v. via tail vein, three injections: 15 minutes prior to the induction of ischaemia, during ischaemia and 5 minutes after reperfusion); • 2. (n=8) steroid compound, 7β-OH EPIA (0.3 mg/kg, i.v. three injections as described in 1.); • 3. (n=8) steroid compound, 7β-OH EPIA (1 mg/kg, i.v., three injections as described in 1.); • 4. (n=8) NBQX (disodium salt, because more water soluble) as reference substance and positive control (TOCRIS, Germany, 30 mg/kg, i.p., three injections as described in 1.); • 5. (n=8) received vehicle (0.9% NaCl, containing 100 μl Ethanol) three injections as described in 1.); • 6. (n=8) ischaemia alone; • 7. (n=8) sham operated controls.
The substances were dissolved in 100 μl ethanol and finally diluted with 0.9% NaCl.
After a survival time of 7 days after ischaemia, all animals were perfusion fixed tanscardially with 4% paraformaldehyde. The brains were then removed carefully and postfixed in the same fixative for 2 hours. After cryoprotection in 30% sucrose, the brains were rapidly frozen in isopentane and stored at −80° C. Twenty-micrometer cryostat sections comprising the hippocampal formation were Nissl stained with toluidine blue or NeuroTrace fluorescence.
The severity of neuronal damage in the hippocampal CA1 region after ischaemia was evaluated by the number of surviving neurons using Nissl staining. The mean number of morphologically intact neurons per 400 μm length was calculated in CA1 region for each group. Cell counting was performed in 3-5 serial sections per animal and 6 times 400 μm CA1 area per section using a light microscope equipped with a 20× objective. The data were statistically analysed by paired Student's t-test. Data were presented as mean±SEM.
Morphological intact hippocampal CA1 neurons were characterised by Nissl staining (toluidine blue and NeuroTrace) with the following criteria: clear shape of a neuronal perikarya, large nucleus with a positive labelled nucleolus, a small cytoplasm zone around the nucleus with positive Nissl staining, indicating the intact rough endoplasmic reticulum with ribosomes and therefore the intact protein synthesis machinery.

[4] = Experiment 1, 100 nM, during and post-hypoxia
[5] = Experiment 1, 100 nM, present pre-, during and post-hypoxia, control hypoxia 25.5 ± 6.4
[6] = 30 mg/kg, three injections, 10 min global ischaemia, 7 days survival

## C[C@]12CC[C@H](O)C[C@@H]1C[C@@H](O)[C@@H]1[C@@H]2CC[C@]2(C)C(=O)CC[C@@H]12 [7αOH-EPIA, 7α-Hydroxy-EPIA]
[1]; [4]
  effect on hypoxic damage in CA1 (in words): significantly reduced
[1]; [5]
  % Damage in CA1: 4.0 ± 2.9 %

## C[C@]12CC[C@H](O)CC1=C[C@H](O)[C@@H]1[C@@H]2CC[C@]2(C)C(=O)CC[C@@H]12 [7βOH-DHEA, 7β-hydroxy-DHEA]
[1]; Experiment 3, 100 nM pre-, during and post-hypoxia
  effect on neuronal damage (in words): a large, highly significant, reduction in neuronal damage
[1]; Experiment 3, 100 nM pre-, during and post-hypoxia, control hypoxia 29.0 ± 6.2
  % Damage in CA1: 4.1 ± 1.9 %

## C[C@]12CC[C@H](O)C[C@@H]1C[C@H](O)[C@@H]1[C@@H]2CC[C@]2(C)C(=O)CC[C@@H]12 [7βOH-EPIA, 7β-hydroxyepiandrosterone]
[2]; control 38.9
  Infarct volume: 14.1
[2]; control 46.3
  Infarct/risk zone (%): 14.4+/−1.22% and 14.4%
[1]; [4]
  effect on hypoxic damage in CA1 (in words): significantly reduced
[1]; [5]
  % Damage in CA1: 9.0 ± 4.7 %
[1]; Experiment 2, 1 nM
  neuroprotection against hypoxia (in words): activity was lost
[1]; Experiment 2, 1 nM, control hypoxia 31.9 ± 4.7
  % Damage in CA1: 20.6 ± 7.2%
[1]; Experiment 2, 10 nM and 100 nM
  neuroprotection against hypoxia (in words): significantly neuroprotective
[1]; Experiment 2, 10 nM, control hypoxia 31.9 ± 4.7
  % Damage in CA1: 11.9 ± 4.7 %
[1]; Experiment 2, 100 nM, control hypoxia 31.9 ± 4.7
  % Damage in CA1: 14.3 ± 5.0 %
[3]; 0.1 mg/kg (p=0.01) and 0.3 mg/kg (p=0.0008)
  neuroprotective effect, t-test analysis (in words): highly significant neuroprotective effect
[3]; 0.1 mg/kg i.v., three injections, 10 min global ischaemia, 7 days survival
  neuroprotective effect on CA1 pyramidal cells compared to the sham operated group: 74.8%
[3]; 0.3 mg/kg i.v., three injections, 10 min global ischaemia, 7 days survival
  neuroprotective effect on CA1 pyramidal cells compared to the sham operated group: 83.9%
[3]; 1.0 mg/kg i.v., three injections
  neuroprotection of CA1 pyramidal cells (in words): only a tendency to neuroprotection, but the effect was not significant
[3]; injected i.v. prior, during and after ischaemia
  behavioural abnormalities of the animals: never observed any behavioural abnormalities

## NS(=O)(=O)c1cccc2c1c([N+](=O)[O-])cc1nc(O)c(O)nc12 [NBQX, 2,3-dihydroxy-6-nitro-7-sulfamoyl-benzo(F)quinoxaline, reference compound]
[3]; 30 mg/kg, three injections
  neuroprotection in CA1 pyramidal cells compared to the ischaemia group (in words): significant (p=0.03) neuroprotection
[3]; [6]
  neuroprotection compared to the ischaemia alone: 47.5%
  protective effect compared to the sham operated animals: 68.5%
